Entries after “also recorded” stand apart in the source; their conditions may differ.
Assay: Multiple particle tracking of particles in CF sputum with mucolytic pretreatment
Assay type: in vitro ADME, human
Conditions: for effect on overall ensemble averaged transport rates of nanoparticles: CF mucus, 30 mins post-treatment, 200 nm particles (rhDNase), 100 nm particles (0.4 mM NAC)
Experimental: Human respiratory sputum was expectorated from male and female CF patients (ages 18-35). CF sputum samples from multiple patients were pooled, freeze-dried, and reconstituted in sputum buffer by stirring at 4° C. to attain a large volume of homogeneous CF sputum. The volume of sputum buffer added to reconstituted CF sputum samples was determined by mass measurements (the reconstituted CF sputum had the equivalent mass of the fresh CF sputum samples).
[…] Mucus samples (200 μL) were centrifuged and a portion of the supernatant (40 μL) was replaced with mucolytic solution or PBS to maintain the initial concentration of mucus solids and eliminate any dilution effects. The displacements of particles in the no treatment (PBS) control were identical to that of particles embedded in an unprocessed mucus sample, which was not centrifuged. The tracking resolution, evaluated by tracking 500 nm polystyrene probes in glycerol, was […].
The mechanism of particle transport over short and long time scales was classified based on the concept of relative change (RC) of effective diffusivity (Deff). In brief, RC values of particles at short and long time scales were calculated by dividing the Deff of a particle at a probed time scale by the Deff at an earlier reference time scale. By calculating RC values for two time regimes (i.e., short and long time scales), one can obtain the transport mode that describes the particle transport properties over different length and temporal scales. RCshort was defined at τref=0.2 s and τprobe=1 s, whereas RClong was found at reference τref=1 s and τprobe=2s. An RC standard curve, which plots the 95% distribution range of Deff for purely Brownian particles over time scale, was generated based on Monte Carlo simulations and confirmed by tracking polystyrene nanoparticles in glycerol (data not shown). The transport modes of particles that display RC values below the […] range for either short or long time scales were classified as hindered, and the rest were classified as diffusive. Immobile particles are defined as those that display an average MSD smaller than the 10-nm resolution at a time scale of 1 s.

Row | increase of transport rates (ensemble geometric mean square displacement) compared to no treatment control (PBS) (500 nm PEG-PS particles, pretreatment of CF mucus with neutralized NAC) | Molecule | enhancement of diffusive fraction of 500 nm PEG-PS compared to no treatment control (500 nm PEG-PS particles, CF mucus pretreated with NAC) | effect on overall ensemble averaged transport rates of nanoparticles (listed as NAC) | effect on overall ensemble averaged transport rates of nanoparticles
1 | 10.7 fold | CC(=O)N[C@@H](CS)C(=O)O [N-acetyl-L-cysteine] | 3 fold | significantly improved; also recorded: increased significantly | –
2 | – | rhDNase: mucus degrading agent which hydrolyzes linear DNA, used clinically to increase mucus clearance (protein, UniProt P24855 23-282, looked up) Deoxyribonuclease-1: LKIAAFNIQTFGETKMSNATLVSYIVQILSRYDIALVQEVRDSHLTAVGKLLDNLNQDAPDTYHYVVSEPLGRNSYKERYLFVYRPDQVSAVDSYYYDDGCEPCGNDTFNREPAIVRFFSRFTEVREFAIVPLHAAPGDAVAEIDALYDVYLDVQEKWGLEDVMLMGDFNAGCSYVRPSQWSSIRLWTSPTFQWLIPDSADTTATPTHCAYDRIVVAGMLLRGAVVPDSALPFNFQAAYGLSDQLAQAISDHYPVEVMLK | – | – | reduced the overall ensemble averaged transport rates; also recorded: did not correlate to improved particle transport

Reference: patent publication US20100215580A1, “Compositions and methods for enhancing transport through mucus” (The Johns Hopkins University, priority 2006, published 2010)
